Experimental data published in ChEMBL document CHEMBL1129196, “Studies on the structural feature of S'1 subsite of neprilysin (EC.3.4.24.11): Stereochemical requirement for the enzyme-inhibitor docking process” (Bioorg Med Chem Lett, 1996).

Key:
[1] = biological target: Neprilysin (Homo sapiens, UniProt P08473); experiment: Compound was evaluated for inhibition of recombinant human neprilysin(NEP).
[2] = biological target: T1, Angiotensin-converting enzyme (Rattus norvegicus, UniProt P47820); experiment: Compound was measured for the inhibition of Angiotensin I converting enzyme
T1 sequence (P47820 whole entry): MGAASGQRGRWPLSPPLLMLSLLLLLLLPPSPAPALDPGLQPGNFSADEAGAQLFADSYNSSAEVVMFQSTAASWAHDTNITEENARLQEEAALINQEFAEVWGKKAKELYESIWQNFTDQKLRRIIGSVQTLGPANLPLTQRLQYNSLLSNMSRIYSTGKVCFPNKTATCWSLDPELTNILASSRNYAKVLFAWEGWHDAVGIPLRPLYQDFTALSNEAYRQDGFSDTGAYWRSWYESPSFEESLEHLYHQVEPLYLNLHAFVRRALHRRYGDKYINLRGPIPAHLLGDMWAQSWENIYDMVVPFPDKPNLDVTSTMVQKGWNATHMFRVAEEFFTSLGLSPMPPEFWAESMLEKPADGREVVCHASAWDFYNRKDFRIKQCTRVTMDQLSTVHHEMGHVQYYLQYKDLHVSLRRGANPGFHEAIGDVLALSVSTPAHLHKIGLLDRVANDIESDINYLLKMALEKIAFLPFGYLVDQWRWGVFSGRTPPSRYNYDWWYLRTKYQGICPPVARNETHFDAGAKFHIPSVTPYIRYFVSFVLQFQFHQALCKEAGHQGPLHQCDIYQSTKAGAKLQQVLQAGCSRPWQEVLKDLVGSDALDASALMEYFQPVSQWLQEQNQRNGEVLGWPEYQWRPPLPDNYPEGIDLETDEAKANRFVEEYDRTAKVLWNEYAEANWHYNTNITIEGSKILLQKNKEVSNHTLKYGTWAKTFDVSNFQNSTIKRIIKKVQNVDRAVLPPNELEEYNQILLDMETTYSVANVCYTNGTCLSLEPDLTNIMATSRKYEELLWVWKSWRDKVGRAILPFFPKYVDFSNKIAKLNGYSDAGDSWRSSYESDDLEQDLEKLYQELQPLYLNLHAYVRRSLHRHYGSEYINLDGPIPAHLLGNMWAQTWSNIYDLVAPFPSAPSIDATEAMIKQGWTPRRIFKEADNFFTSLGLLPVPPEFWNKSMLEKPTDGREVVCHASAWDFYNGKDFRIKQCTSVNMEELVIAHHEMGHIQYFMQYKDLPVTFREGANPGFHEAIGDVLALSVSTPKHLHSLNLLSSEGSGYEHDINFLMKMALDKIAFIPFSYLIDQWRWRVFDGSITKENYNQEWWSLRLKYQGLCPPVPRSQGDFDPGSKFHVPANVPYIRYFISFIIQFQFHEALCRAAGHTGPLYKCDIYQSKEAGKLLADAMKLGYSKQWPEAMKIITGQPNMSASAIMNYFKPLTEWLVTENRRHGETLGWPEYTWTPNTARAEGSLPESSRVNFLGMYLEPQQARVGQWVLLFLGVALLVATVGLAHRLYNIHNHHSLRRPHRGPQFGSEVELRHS

Sequence of Neprilysin (P08473 whole entry): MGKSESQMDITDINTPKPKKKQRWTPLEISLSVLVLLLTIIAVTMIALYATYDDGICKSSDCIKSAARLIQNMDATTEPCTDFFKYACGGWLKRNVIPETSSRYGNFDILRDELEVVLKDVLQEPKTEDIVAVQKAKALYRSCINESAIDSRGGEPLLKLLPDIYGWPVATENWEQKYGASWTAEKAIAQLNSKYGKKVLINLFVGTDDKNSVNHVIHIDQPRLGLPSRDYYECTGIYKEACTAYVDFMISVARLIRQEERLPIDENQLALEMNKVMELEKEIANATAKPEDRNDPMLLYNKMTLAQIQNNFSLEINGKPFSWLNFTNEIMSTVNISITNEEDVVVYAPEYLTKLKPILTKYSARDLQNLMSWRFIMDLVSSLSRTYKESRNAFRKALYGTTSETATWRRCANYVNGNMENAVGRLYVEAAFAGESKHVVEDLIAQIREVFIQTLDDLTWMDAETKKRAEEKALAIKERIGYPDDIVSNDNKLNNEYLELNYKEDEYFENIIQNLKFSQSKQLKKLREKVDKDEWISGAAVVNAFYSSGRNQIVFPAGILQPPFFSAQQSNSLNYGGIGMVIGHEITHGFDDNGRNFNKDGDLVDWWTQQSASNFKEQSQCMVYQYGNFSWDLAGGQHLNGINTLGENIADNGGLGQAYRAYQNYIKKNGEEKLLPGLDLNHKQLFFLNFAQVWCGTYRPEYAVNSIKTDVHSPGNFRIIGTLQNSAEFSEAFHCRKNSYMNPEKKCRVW

| SMILES | Ki [1] [nM] | Ki [2] [nM] |
| --- | --- | --- |
| O=C(O)CNC(=O)C(CS)(Cc1ccccc1)Cc1ccccc1 | > 100 |  |
| O=C(O)CNC(=O)/C(=C/c1ccccc1)CS | 408 |  |
| O=C(O)CNC(=O)/C(=C\c1ccccc1)CS | 4.9 | 380 |
| O=C(O)CNC(=O)C1(CS)Cc2ccccc2C1 | 162 |  |
